# Laboratory results reported in patent US12484580B2, “Use of alkoxypyrazoles as nitrification inhibitors” (BASF SE, priority 2018, dated 2025).
# What was measured:
# [1] = test system: nitrification (soil microbial biomass); test: inhibition of nitrification in soil incubation test (ammonium and nitrate content after 0 and 14 days); conditions: compound at 1% of nitrogen N, 100 g soil, 10 mg ammoniumsulfate-N, 20° C., best obtained NI value
# Procedure: The compounds of the invention have been tested as follows in terms of the inhibition of nitrification: 100 g soil is filled into 500 ml plastic bottles (e.g. soil sampled from the field) and is moistened to 50% water holding capacity. The soil is incubated at 20° C. for two weeks to activate the microbial biomass. 1 ml test solution, containing the compound in the appropriate concentration (usually 0.3 or 1% of nitrogen N), or DMSO and 10 mg nitrogen in the form of ammoniumsulfate-N is added to the soil and everything mixed well. Bottles are capped but loosely to allow air exchange. The bottles are then incubated at 20° C. for 0 and 14 days. For analysis, 300 ml of a 1% K2SO4-solution is added to the bottle containing the soil and shaken for 2 hours in a horizontal shaker at 150 rpm. Then the whole solution is filtered through a filter (Macherey-Nagel Filter MN 807 ¼). Ammonium and nitrate content is then analyzed in the filtrate in an autoanalyzer at 550 nm (Merck, AA11). The inhibition (NI @ a specified concentration) is calculated as follows: [formula]
# [2] = volatility of prior-art nitrification inhibitor; assay type: physicochemical; conditions: stated as disadvantageous for long-term applications
SMILES,NI* @ 1% [1],volatility [2]
CCOc1[nH]nc(C)c1Cl [compound 9],22.0,–
CCOc1cc(C)[nH]n1 [3-ethoxy-5-methylpyrazole],–,high volatility
